The target in assay [1] is Cytochrome P450 3A4 (Homo sapiens, UniProt P08684). The assay is described as follows: Inhibition of recombinant CYP3A4 expressed in baculovirus-infected insect microsomes. It is filed as ADME, Microsome.
Assay [2] addresses T1, Cytochrome P450 11B1, mitochondrial (Homo sapiens, UniProt P15538).
T1 sequence (P15538 whole entry): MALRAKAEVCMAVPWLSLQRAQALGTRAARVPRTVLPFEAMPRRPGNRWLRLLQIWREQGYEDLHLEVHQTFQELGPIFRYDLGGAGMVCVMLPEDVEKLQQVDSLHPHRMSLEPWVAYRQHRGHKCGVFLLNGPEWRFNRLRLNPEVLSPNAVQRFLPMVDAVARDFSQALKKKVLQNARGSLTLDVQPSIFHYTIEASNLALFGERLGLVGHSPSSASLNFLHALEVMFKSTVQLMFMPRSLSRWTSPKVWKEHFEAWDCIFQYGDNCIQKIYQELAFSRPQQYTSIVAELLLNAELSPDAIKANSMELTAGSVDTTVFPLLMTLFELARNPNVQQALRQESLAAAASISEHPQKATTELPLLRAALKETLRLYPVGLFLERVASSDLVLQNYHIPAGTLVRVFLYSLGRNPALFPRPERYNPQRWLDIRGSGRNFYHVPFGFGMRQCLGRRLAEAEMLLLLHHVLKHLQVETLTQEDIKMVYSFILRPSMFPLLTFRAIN
The assay is described as follows: Inhibition of human CYP11B1 expressed in hamster V79MZh11B1 cells. The format is cell-based.

In assay [3] the target is T2, Cytochrome P450 11B2, mitochondrial (Homo sapiens, UniProt P19099).
T2 sequence (P19099 whole entry): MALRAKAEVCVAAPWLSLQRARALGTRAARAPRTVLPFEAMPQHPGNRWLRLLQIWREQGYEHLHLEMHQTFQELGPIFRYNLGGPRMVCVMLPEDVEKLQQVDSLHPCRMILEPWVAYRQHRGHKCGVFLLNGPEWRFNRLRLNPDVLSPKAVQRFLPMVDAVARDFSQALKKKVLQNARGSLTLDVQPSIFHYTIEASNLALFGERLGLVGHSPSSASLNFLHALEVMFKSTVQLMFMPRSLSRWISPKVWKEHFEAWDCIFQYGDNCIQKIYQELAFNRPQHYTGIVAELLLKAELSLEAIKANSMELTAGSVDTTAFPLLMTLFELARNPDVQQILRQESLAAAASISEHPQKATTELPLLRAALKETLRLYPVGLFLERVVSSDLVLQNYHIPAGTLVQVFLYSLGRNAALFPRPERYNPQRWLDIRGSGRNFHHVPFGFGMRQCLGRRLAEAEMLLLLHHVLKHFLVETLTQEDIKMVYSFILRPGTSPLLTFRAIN
In words: Inhibition of human CYP11B2 expressed in hamster V79MZh11B2 cells. The format is cell-based.

Assay [4] concerns the target T3, Steroid 17-alpha-hydroxylase/17,20 lyase (Homo sapiens, UniProt P05093).
T3 sequence (P05093 whole entry): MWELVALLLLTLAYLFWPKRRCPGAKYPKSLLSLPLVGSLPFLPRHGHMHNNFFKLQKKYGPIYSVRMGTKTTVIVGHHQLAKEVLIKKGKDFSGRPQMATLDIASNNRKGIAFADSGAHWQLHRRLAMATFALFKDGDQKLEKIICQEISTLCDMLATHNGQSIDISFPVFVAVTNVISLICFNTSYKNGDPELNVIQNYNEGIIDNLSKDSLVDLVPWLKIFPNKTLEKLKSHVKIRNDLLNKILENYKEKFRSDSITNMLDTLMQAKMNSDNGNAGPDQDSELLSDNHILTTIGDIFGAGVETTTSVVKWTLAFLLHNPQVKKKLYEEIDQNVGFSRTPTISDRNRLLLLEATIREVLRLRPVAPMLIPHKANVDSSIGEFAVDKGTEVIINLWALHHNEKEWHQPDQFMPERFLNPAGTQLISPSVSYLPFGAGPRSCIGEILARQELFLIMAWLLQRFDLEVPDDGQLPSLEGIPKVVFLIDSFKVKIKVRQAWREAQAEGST
The assay is described as follows: Inhibition of human recombinant CYP17 expressed in Escherichia coli coexpressing NADPH-P450 reductase.

pIC50: −log10 of the molar value. Some results are limits rather than exact numbers.

Cytochrome P450 3A4, sequence (P08684 whole entry): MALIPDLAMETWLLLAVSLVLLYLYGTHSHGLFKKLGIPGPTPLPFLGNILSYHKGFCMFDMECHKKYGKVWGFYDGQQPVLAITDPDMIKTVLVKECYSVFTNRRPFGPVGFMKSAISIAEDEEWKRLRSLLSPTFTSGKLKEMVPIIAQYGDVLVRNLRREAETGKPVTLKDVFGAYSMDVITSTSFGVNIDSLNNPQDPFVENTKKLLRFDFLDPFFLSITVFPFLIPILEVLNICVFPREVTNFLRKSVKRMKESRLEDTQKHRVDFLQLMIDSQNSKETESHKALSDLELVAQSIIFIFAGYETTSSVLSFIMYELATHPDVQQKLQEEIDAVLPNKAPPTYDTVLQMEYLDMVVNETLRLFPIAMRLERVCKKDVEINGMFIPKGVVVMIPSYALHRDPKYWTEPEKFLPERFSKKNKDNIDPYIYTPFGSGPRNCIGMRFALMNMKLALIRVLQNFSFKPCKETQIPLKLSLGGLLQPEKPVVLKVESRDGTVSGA

In general, pIC50 refers to the IC50 on a negative log10 scale, so that one unit is a factor of ten. `OC1(c2ccncc2)CCCc2cc(-c3ccc(F)c(F)c3)ccc21` (stereo unspecified): the pIC50 in assay [1] is 4.86.

As for `COc1ccc(-c2ccc3c(c2)CCCC3(O)c2ccncc2)cc1F` (stereo unspecified), the pIC50 in assay [2] is 6.16; in assay [1], 4.82; in assay [3], 6.02; in assay [4] it was below 5.30.

For the compound `Oc1ccc(-c2ccc3c(c2)CCC=C3c2ccncc2)cc1F`, the pIC50 in assay [2] was 5.56; in assay [1] it was 5.67; in assay [3] it was 6.00; in assay [4] it was 6.73.

In the case of `Fc1ccc(-c2ccc3c(c2)CCC3c2cccnc2)cc1` (stereo unspecified), the pIC50 in assay [1] was 5.77; in assay [4], below 4.70.

Consider `Fc1ccc(-c2ccc3c(c2)CCC3c2ccncc2)cc1` (stereo unspecified), for which the pIC50 in assay [2] was 5.97; in assay [1], 5.96; in assay [3], 6.27; in assay [4], 6.63.

As for `Fc1ccc(-c2ccc3c(c2)CCCC3c2ccncc2)cc1` (stereo unspecified), the pIC50 in assay [2] is below 5.30; in assay [1] it was 5.66; in assay [3] it was 6.29; in assay [4] it was 6.79.

In the case of `Oc1ccc(-c2ccc3c(c2)CCCC3c2ccncc2)cc1F` (stereo unspecified), the pIC50 is 5.86 in assay [2], 5.47 in assay [1], 6.23 in assay [3] and 7.19 in assay [4].

With `COc1ccc(-c2ccc3c(c2)CC=C3c2ccncc2)cc1`, the pIC50 in assay [1] was 5.62.

For the compound `Fc1ccc(-c2ccc3c(c2)CCC=C3c2ccncc2)cc1`, the pIC50 in assay [1] was 5.38.

For `Fc1ccc(-c2ccc3c(c2)CCC=C3c2ccncc2)cc1F`, the pIC50 was below 4.70 in assay [2], 5.44 in assay [1], 6.51 in assay [3] and below 5.30 in assay [4].

With `OC1(c2cccnc2)CCc2cc(-c3ccc(F)cc3)ccc21` (stereo unspecified), the pIC50 in assay [1] is below 4.70.

`OC1(c2ccncc2)CCc2cc(-c3ccc(F)cc3)ccc21` (stereo unspecified): in assay [1], the negative-log IC50 (pIC50) was 5.49.

In the case of `COc1ccc(-c2ccc3c(c2)CCC3(O)c2ccncc2)cc1` (stereo unspecified), the pIC50 in assay [1] was 5.48.

As to `OC1(c2ccncc2)CCCc2cc(-c3ccc(F)cc3)ccc21` (stereo unspecified), the pIC50 was 5.94 in assay [2], 5.06 in assay [1], 6.08 in assay [3] and 6.23 in assay [4].

`Fc1ccc(-c2ccc3c(c2)CC=C3c2ccncc2)cc1`: the pIC50 in assay [1] is 6.80.

`Oc1ccc(-c2ccc3c(c2)CCCC3c2ccncc2)cc1O` (stereo unspecified): the negative-log IC50 (pIC50) in assay [1] is 6.20.

`Fc1ccc(-c2ccc3c(c2)CC=C3c2cccnc2)cc1`: the figures for the pIC50 in assay [1] and in assay [4] were 5.16 and 5.63, respectively.

Consider `Oc1ccc(-c2ccc3c(c2)CCC=C3c2ccncc2)cc1O`, for which the pIC50 in assay [1] was 6.45.

Turning to `COc1ccc(-c2ccc3c(c2)CCC3(O)c2ccncc2)cc1F` (stereo unspecified), the pIC50 in assay [2] is 6.54; in assay [1], 5.47; in assay [3], 6.36; in assay [4] it was below 5.00.

In turn, `C[C@]12CC[C@H](O)CC1=CC[C@@H]1[C@@H]2CC[C@]2(C)C(c3cccnc3)=CC[C@@H]12` [ABIRATERONE] had a pIC50 in assay [3] of 5.76.

(Values after ChEMBL document CHEMBL1156598 (J Med Chem, 2008).)
